Where a name gives a salt, the structure may show the parent alone.
target: T1, human renal renin (Homo sapiens, UniProt P00797); assay: Inhibition of human renal renin in vitro; angiotensin I formed measured by radioimmunoassay; type: biochemical; conditions: not given
T1 construct: human renal renin, free from acid proteolytic activity; from tissue
T1 sequence (P00797 67-406): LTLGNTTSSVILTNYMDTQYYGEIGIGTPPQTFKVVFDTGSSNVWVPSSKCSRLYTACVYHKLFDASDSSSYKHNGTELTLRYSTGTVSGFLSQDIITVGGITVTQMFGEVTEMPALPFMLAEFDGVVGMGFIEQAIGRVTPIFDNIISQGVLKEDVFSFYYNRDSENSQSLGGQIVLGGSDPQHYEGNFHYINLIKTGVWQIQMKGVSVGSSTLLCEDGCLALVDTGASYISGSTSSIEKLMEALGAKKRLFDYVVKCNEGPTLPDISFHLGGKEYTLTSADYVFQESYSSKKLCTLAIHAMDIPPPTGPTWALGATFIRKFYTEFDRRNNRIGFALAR

Q: How did the IC50 turn out when CC(C)C[C@H](O)[C@H](O)[C@H](CC1CCCCC1)NC(=O)[C@H](Cc1c[nH]cn1)NC(=O)[C@H](Cc1ccccc1)NC(=O)[C@@H](C)N [Example 70, H-D-Ala-Phe-His Amide of 2(S)-Amino-l-cyclohexyl-3(R), 4(S)-dihydroxy-6-methylheptane Diacetic Acid Salt] was run?
A: 2.5 nM

Q: How did the IC50 turn out when COCCOCOCCN(C)C(=O)C[C@@H](Cc1ccccc1)C(=O)N[C@@H](Cc1c[nH]cn1)C(=O)N[C@@H](CC1CCCCC1)[C@@H](O)[C@@H](O)CC(C)C [Example 214, (2R)-2-Benzyl-3-(N-methyl-N-2-methoxyethoxymethoxyethylamino-carbonyl)propionyl-His Amide of 2(S)-Amino-l-cyclohexyl-3(R),4(S)-dihydroxy-6-methylheptane] was run?
A: 0.24 nM

Q: CC(C)C[C@H](O)[C@H](O)[C@H](CC1CCCCC1)NC(=O)[C@H](Cc1c[nH]cn1)NC(=O)[C@H](Cc1ccccc1)NC(=O)c1ccc[nH]1 [Example 89, (Pyrrol-2-yl-carbonyl)-Phe-His Amide of 2(S)-Amino-1-cyclohexyl-3(R),4(S)-dihydroxy-6-methylheptane] was tested. Which IC50 did it give?
A: 1 nM

Q: COc1ccc(C[C@H](NC(=O)CCCCC(N)C(=O)O)C(=O)N[C@@H](CC(C)C)C(=O)N[C@@H](CC2CCCCC2)[C@@H](O)[C@@H](O)CC(C)C)cc1 (stereo partly drawn) [Example 194, 6-Amino-6-carboxyhexanoyl-(4-OMe)Phe-Leu Amide of 2(S)-Amino-l-cyclohexyl-3(R),4(S)-dihydroxy-6-methylheptane] was tested. Which IC50 did it give?
A: 2.3 nM

Q: How did the IC50 turn out when CC(C)C[C@H](O)[C@H](O)[C@H](CC1CCCCC1)NC(=O)[C@H](Cc1cnc[nH]1)NC(=O)[C@H](Cc1ccccc1)NC(=O)N1CCOCC1 [Example 118, [(4-Morpholinyl)carbonyl]-phe-His Amide of 2(S)-Amino-1-cyclohexyl-3(R),4(S)-dihydroxy-6-methylheptane] was run?
A: 0.5 nM

Q: Which IC50 does the source give for COc1ccc(C[C@@H](C(=O)N[C@@H](CC(C)C)C(=O)N[C@@H](CC2CCCCC2)[C@@H](O)[C@@H](O)CC(C)C)N(C)C)cc1 [Example 56, (N,N-Dimethyl,4-methoxy)-Phe-Leu Amide of 2(S)-Amino-1-cyclohexyl-3(R),4(S)-dihydroxy-6-methylheptane] here?
A: 5.5 nM

Q: Which IC50 does the source give for CC(C)C[C@H](O)[C@H](O)[C@H](CC1CCCCC1)NC(=O)[C@H](Cc1c[nH]cn1)NC(=O)[C@H](CC1CCCCC1)NC(=O)CC(C)(C)C [Example 21, TBA-CHA-His Amide of 2(S)-Amino-l-cyclohexyl-3(R),4(S)-dihydroxy-6-methylheptane] here?
A: 2 nM

Q: For CC(C)C[C@H](O)[C@H](O)[C@H](CC1CCCCC1)NC(=O)[C@H](Cc1c[nH]cn1)NC(=O)[C@H](Cc1ccccc1)NC(=O)[C@@H]1CCCN1 [Example 77, H-Pro-Phe-His Amide of 2(S)-Amino-l-cyclohexyl-3(R), 4(S)-dihydroxy-6-methylheptane Acetic Acid Salt], which IC50 is on record?
A: 0.98 nM

Q: How did the IC50 turn out when CC(C)C[C@H](NC(=O)[C@H](Cc1ccccc1)NC(=O)CCCC(=O)O)C(=O)N[C@@H](CC1CCCCC1)[C@@H](O)[C@@H](O)CC(C)C [Example 184, 4-Carboxybutyroyl-Phe-Leu Amide of 2(S)-Amino-l-cyclohexyl-3(R),4(S)-dihydroxy-6-methylheptane] was run?
A: 0.59 nM

Q: Which IC50 does the source give for CC(C)C[C@H](NC(=O)[C@H](Cc1ccccc1)NC(=O)OCCCOC(=O)CNC(=O)OCc1ccccc1)C(=O)N[C@@H](CC1CCCCC1)[C@@H](O)[C@@H](O)CC(C)C [Example 92, Cbz-Gly Ester of the Resultant Compound of Example 91 (at 3-Hydroxypropyloxy Group)] here?
A: 0.5 nM

Q: How did the IC50 turn out when CC(C)C[C@H](O)[C@H](O)[C@H](CC1CCCCC1)NC(=O)[C@H](Cc1c[nH]cn1)NC(=O)[C@H](Cc1ccccc1)NC(=O)CO [Example 103, Hydroxyacetyl-Phe-His Amide of 2(S)-Amino-l-cyclohexyl-3(R),4(S)-dihydroxy-6-methylheptane] was run?
A: 1 nM

Q: CC(C)C[C@H](O)[C@H](O)[C@H](CC1CCCCC1)NC(=O)[C@H](Cc1c[nH]cn1)NC(=O)[C@H](Cc1ccccc1)NC(=O)CCNC(=O)OCc1ccccc1 [Example 61, Cbz-β-Ala-Phe-His Amide of 2(S)-Amino-l-cyclohexyl-3(R),4(S)-dihydroxy-6-methylheptane] was tested. Which IC50 did it give?
A: 0.55 nM

Q: For CC(C)C[C@H](O)[C@H](O)[C@H](CC1CCCCC1)NC(=O)[C@H](Cc1c[nH]cn1)NC(=O)[C@H](Cc1ccccc1)NC(=O)COCC(=O)O [Example 186, Carboxymethoxymethylcarbonyl-Phe-His Amide of 2(S)-Amino-1-cyclohexyl-3(R),4(S)-dihydroxy-6-methylheptane], which IC50 is on record?
A: 2 nM

Q: With CC(C)C[C@H](O)[C@H](O)[C@H](CC1CCCCC1)NC(=O)[C@H](Cc1c[nH]cn1)NC(=O)[C@H](Cc1ccccc1)NC(=O)CC(C)(C)NC(=O)OCc1ccccc1 [Example 74, Cbz-[(β,β-di-Me)-β-Ala]-Phe-His Amide of 2(S)-Amino-1-cyclohexyl-3(R),4(S)-dihydroxy-6-methylheptane] as the molecule, how does the IC50 read?
A: 0.7 nM

Q: How did the IC50 turn out when CC(C)C[C@H](O)[C@H](O)[C@H](CC1CCCCC1)NC(=O)[C@H](Cc1c[nH]cn1)NC(=O)[C@H](Cc1ccccc1)NC(=O)[C@@H](C)NC(=O)OCc1ccccc1 [Example 69, Cbz-D-Ala-Phe-His Amide of 2(S)-Amino-l-cyclohexyl-3(R), 4(S)-dihydroxy-6-methylheptane] was run?
A: 0.81 nM

Q: For CC(C)C[C@H](O)[C@H](O)[C@H](CC1CCCCC1)NC(=O)[C@H](Cc1c[nH]cn1)NC(=O)C(NC(=O)N1CCOCC1)C(C)(C)c1ccccc1 (stereo partly drawn) [Example 178, 2(R,S)-[[(4-Morpholinyl)carbonyl]amino]-3,3-dimethyl-3-phenylpropionyl-His Amide of 2(S)-Amino-l-cyclohexyl-3(R),4(S)-dihydroxy-6-methylheptane], which IC50 is on record?
A: 2 nM

Q: For CC(C)C[C@H](O)[C@H](O)[C@H](CC1CCCCC1)NC(=O)[C@H](Cc1c[nH]cn1)NC(=O)C(Cc1ccccc1)Cc1ccccc1 [Example 27, Dba-His Amide of 2(S)-Amino-l-cyclohexyl-3(R),4(S)-dihydroxy-6-methylhectane], which IC50 is on record?
A: 7 nM

Q: How did the IC50 turn out when CC(C)C[C@H](O)[C@H](O)[C@H](CC1CCCCC1)NC(=O)[C@H](Cc1c[nH]cn1)NC(=O)CCc1ccccc1 [Example 28, Pp-His Amide of 2(S)-Amino-l-cyclohexyl-3(R),4(S)-dihydroxy-6-methylheptane] was run?
A: 80 nM

Q: How did the IC50 turn out when COC(=O)C(CCCCC(=O)N[C@@H](Cc1ccc(OC)cc1)C(=O)N[C@@H](CC(C)C)C(=O)N[C@@H](CC1CCCCC1)[C@@H](O)[C@@H](O)CC(C)C)NC(=O)OCc1ccccc1 (stereo partly drawn) [Example 192, 6-(BenzYloxYcarbonyl)amino-6-(methoxycarbonyl)hexanoyl-(4-OMe)Phe-Leu Amide of 2(S)-Amino-l-cyclohexyl-3(R),4(S)-dihydroxy-6-methylheptane] was run?
A: 0.61 nM

Q: How did the IC50 turn out when CC(C)C[C@H](O)[C@H](O)[C@H](CC1CCCCC1)NC(=O)[C@H](Cc1c[nH]cn1)NC(=O)[C@H](Cc1ccccc1)NC(=O)CCN [Example 62, H-β-Ala-Phe-His Amide of 2(S)-Amino-l-cyclohexyl-3(R), 4(S)-dihydroxy-6-methylheptane Diacetic Acid Salt] was run?
A: 2 nM

Q: C=CCOC(=O)N[C@@H](Cc1ccccc1)C(=O)N[C@@H](CC(C)C)C(=O)N[C@@H](CC1CCCCC1)[C@@H](O)[C@@H](O)CC(C)C [Example 90, Allyloxycarbonyl-Phe-Leu Amide of 2(S)-Amino-l-cyclohexyl-3(R),4(S)-dihydroxy-6-methylheptaine] was tested. Which IC50 did it give?
A: 0.4 nM

Q: How did the IC50 turn out when CCOC(=O)[C@H](C)N[C@@H](Cc1ccccc1)C(=O)N[C@@H](Cc1c[nH]cn1)C(=O)N[C@@H](CC1CCCCC1)[C@@H](O)[C@@H](O)CC(C)C [Example 185B, [l(S)-(Ethoxycarbonyl)-ethyl]-Phe-His Amide of 2(S)-Amino-1-cyclohexyl-3(R),4(S)-dihydroxy-6-methylheptane] was run?
A: 0.51 nM

Q: CC(C)C[C@H](O)[C@H](O)[C@H](CC1CCCCC1)NC(=O)[C@H](Cc1c[nH]cn1)NC(=O)[C@H](Cc1ccccc1)NC(=O)c1cnccn1 [Example 87, (Pyrazin-2-yl-carbonyl)-Phe-His Amide of 2(S)-Amino-1-cyclohexyl-3(R),4(S)-dihydroxy-6-methylheptane] was tested. Which IC50 did it give?
A: 0.55 nM

Q: For CC(C)C[C@H](NC(=O)[C@@H](N)Cc1ccccc1)C(=O)N[C@@H](CC1CCCCC1)[C@@H](O)[C@@H](O)CC(C)C [Example 57, H-Phe-Leu Amide of 2(S)-Amino-l-cyclohexyl-3(R),4(S)-dihydroxY-6-methylheptane], which IC50 is on record?
A: 7.5 nM

same assay, conditions: human renal renin free from acid proteolytic activity, renin substrate human angiotensinogen, 37° C., pH 6.0

Q: How did the IC50 turn out when CC(C)C[C@H](O)[C@@H](O)[C@H](CC1CCCCC1)NC(=O)[C@H](Cc1c[nH]cn1)NC(=O)[C@H](Cc1ccccc1)NC(=O)OC(C)(C)C [Example 16, Boc-Phe-His Amide of 2(S)-Amino-l-cyclohexyl-3(S),4(S)-dihydroxy-6-methylheptane] was run?
A: 70 nM

Q: CC(C)C[C@@H](O)[C@@H](O)[C@H](CC1CCCCC1)NC(=O)[C@H](Cc1c[nH]cn1)NC(=O)[C@H](Cc1ccccc1)NC(=O)OC(C)(C)C [Example 18, Boc-Phe-His Amide of 2(S)-Amino-l-cyclohexyl-3(S),4(R)-dihydroxy-6-methylheptane] was tested. Which IC50 did it give?
A: 95 nM

Q: C[C@H](O)[C@H](O)[C@H](CC1CCCCC1)NC(=O)[C@H](Cc1c[nH]cn1)NC(=O)[C@H](Cc1ccccc1)NC(=O)OC(C)(C)C [Example 49, Boc-Phe-His Amide of 2(S)-Amino-l-cyclohexyl-3(R),4(S)-dihydroxypentane] was tested. Which IC50 did it give?
A: 2 nM

Q: With CC(C)C[C@H](NC(=O)OC(C)(C)C)C(=O)N[C@@H](Cc1c[nH]cn1)C(=O)N[C@@H](CC1CCCCC1)[C@@H](O)[C@@H](O)CC(C)C [Example 31, Boc-Leu-His Amide of 2(S)-Amino-l-cyclohexyl-3(R),4(S)-dihydroxy-6-methylheptane] as the molecule, how does the IC50 read?
A: 1 nM
